Drawing on publication PMC9404513 (ACS Omega, 2022), this text covers IC50 and solubility for one molecule.

The target of one series is T1, MAO-B (Homo sapiens, UniProt P27338).
T1 sequence (P27338 1-520): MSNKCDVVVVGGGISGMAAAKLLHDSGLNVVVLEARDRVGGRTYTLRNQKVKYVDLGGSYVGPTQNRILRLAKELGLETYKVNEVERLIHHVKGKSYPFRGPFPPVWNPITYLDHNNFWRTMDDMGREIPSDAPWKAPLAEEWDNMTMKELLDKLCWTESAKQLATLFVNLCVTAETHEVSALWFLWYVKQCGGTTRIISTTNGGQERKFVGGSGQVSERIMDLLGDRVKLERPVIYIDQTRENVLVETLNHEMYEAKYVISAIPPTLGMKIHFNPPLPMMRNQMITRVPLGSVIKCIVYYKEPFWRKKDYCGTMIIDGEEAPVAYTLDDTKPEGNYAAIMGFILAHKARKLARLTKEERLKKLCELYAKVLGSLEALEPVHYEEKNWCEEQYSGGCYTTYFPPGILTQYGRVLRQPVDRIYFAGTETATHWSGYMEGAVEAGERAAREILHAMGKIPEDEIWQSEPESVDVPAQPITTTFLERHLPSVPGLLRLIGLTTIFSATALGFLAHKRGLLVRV
The series can be described thus: Monoamine oxidase B inhibition. Type of series: biochemical.

Series [1] in a line: Solubility in organic solvents. Type of series: physicochemical. The note with it: solvents in which the compound is soluble.
A further series addresses T2, MAO-A (Homo sapiens, UniProt P21397).
T2 sequence (P21397 1-527): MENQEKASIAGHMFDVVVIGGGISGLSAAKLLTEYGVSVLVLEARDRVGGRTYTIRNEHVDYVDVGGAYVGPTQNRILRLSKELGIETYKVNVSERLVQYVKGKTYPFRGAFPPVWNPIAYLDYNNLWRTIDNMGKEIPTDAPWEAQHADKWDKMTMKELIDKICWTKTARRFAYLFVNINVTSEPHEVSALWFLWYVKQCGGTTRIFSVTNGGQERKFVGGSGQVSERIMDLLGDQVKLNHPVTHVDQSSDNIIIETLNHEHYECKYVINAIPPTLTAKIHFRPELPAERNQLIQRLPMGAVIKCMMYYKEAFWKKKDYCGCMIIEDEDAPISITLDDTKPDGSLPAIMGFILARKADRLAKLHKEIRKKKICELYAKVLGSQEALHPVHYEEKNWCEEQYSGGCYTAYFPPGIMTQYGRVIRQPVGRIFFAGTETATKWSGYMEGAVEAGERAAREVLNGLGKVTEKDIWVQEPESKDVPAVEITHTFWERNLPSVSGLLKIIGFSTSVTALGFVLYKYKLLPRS
Description: Monoamine oxidase A inhibition. Type of series: biochemical.

As for `CCOC(=O)C1=C(Nc2ccc(F)cc2)CC(c2ccc(C(F)(F)F)cc2)N(c2ccc(F)cc2)C1c1ccc(C(F)(F)F)cc1` (stereo not drawn) [FTEAA, Ethyl 4-(4-fluorophenylamino)-2,6-bis(4-(trifluoromethyl)phenyl)-1-(4-fluoro-phenyl)-1,2,5,6-tetrahydropyridine-3-carboxylate], the half-maximal inhibitory concentration (IC50) worked out at 1020 ± 110 nM against MAO-B and 520 ± 30 nM against MAO-A. Moreover, the solubility result in series [1] was “acetone, chloroform, dichloromethane, ethyl acetate and ethanol”.
